Columns and labels:
Type in all cases: cell-based
[1] = system: SNB-19; assay: NCI screen, growth of human tumor cells: CNS Cancer SNB-19; conditions: SNB-19, 10^−4 molar
In short: (§1)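 NCI screening: compound applied to tumor cell lines at a given molar concentration, growth measured as percent. Minimum 60 data points/compound; cancer type noted.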

[2] = system: NCI-H226; assay: NCI screen, growth of human tumor cells: Non-Small Cell Lung NCI-H226
In short: as §1

[3] = system: HCT-116; assay: NCI screen, growth of human tumor cells: Colon Cancer HCT-116
In short: as §1

[4] = system: EKVX; assay: NCI screen, growth of human tumor cells: Non-Small Cell Lung EKVX; conditions: EKVX, 10^−4 molar
In short: as §1

[5] = system: HT29; assay: NCI screen, growth of human tumor cells: Colon Cancer HT29
In short: as §1

[6] = system: OVCAR-8; assay: NCI screen, growth of human tumor cells: Ovarian Cancer OVCAR-8
In short: as §1

[7] = system: RPMI-8226; assay: NCI screen, growth of human tumor cells: Leukemia RPMI-8226
In short: as §1

[8] = system: LOXIMVI; assay: NCI screen, growth of human tumor cells: Melanoma LOXIMVI; conditions: LOXIMVI
In short: as §1

[9] = system: SN12C; assay: NCI screen, growth of human tumor cells: Renal Cancer SN12C; conditions: SN12C, 10^−4 molar
In short: as §1

[10] = system: SK-MEL-2; assay: NCI screen, growth of human tumor cells: Melanoma SK-MEL-2
In short: as §1

[11] = system: MDA-MB-231/ATCC; assay: NCI screen, growth of human tumor cells: Breast Cancer MDA-MB-231/ATCC; conditions: MDA-MB-231/ATCC (Breast Cancer), 10^−4 molar
In short: as §1

[12] = system: SK-MEL-28; assay: NCI screen, growth of human tumor cells: Melanoma SK-MEL-28; conditions: SK-MEL-28, 10^−4 molar
In short: as §1

[13] = system: DU-145; assay: NCI screen, growth of human tumor cells: Prostate Cancer DU-145; conditions: DV-145, 10^−4 molar
In short: as §1

[14] = system: MCF 7; assay: NCI screen, growth of human tumor cells: Breast Cancer MCF 7
In short: as §1

[15] = system: OVCAR-3; assay: NCI screen, growth of human tumor cells: Ovarian Cancer OVCAR-3; conditions: OVCAR-3, 10^−4 molar
In short: as §1

[16] = system: COLO205; assay: NCI screen, growth of human tumor cells: Colon Cancer COLO205
In short: as §1

[17] = system: ACHN; assay: NCI screen, growth of human tumor cells: Renal Cancer ACHN; conditions: ACHN
In short: as §1

[18] = system: BT-549; assay: NCI screen, growth of human tumor cells: Breast Cancer BT-549
In short: as §1

[19] = system: CAKI-1; assay: NCI screen, growth of human tumor cells: Renal Cancer CAKI-1; conditions: CAKI-1, 10^−4 molar
In short: as §1

[20] = system: TK-10; assay: NCI screen, growth of human tumor cells: Renal Cancer TK-10; conditions: TK-10, 10^−4 molar
In short: as §1

[21] = system: KM12; assay: NCI screen, growth of human tumor cells: Colon Cancer KM12; conditions: KM12, 10^−4 molar
In short: as §1

[22] = system: SR; assay: NCI screen, growth of human tumor cells: Leukemia SR; conditions: SR
In short: as §1

[23] = system: PC-3; assay: NCI screen, growth of human tumor cells: Prostate Cancer PC-3
In short: as §1

[24] = system: OVCAR-4; assay: NCI screen, growth of human tumor cells: Ovarian Cancer OVCAR-4; conditions: OVCAR-4, 10^−4 molar
In short: as §1

[25] = system: MCF7/ADR-RES; assay: NCI screen, growth of human tumor cells: Breast Cancer MCF7/ADR-RES; conditions: MCF7/ADR-RES (Breast Cancer), 10^−4 molar
In short: as §1

[26] = system: K562; assay: NCI screen, growth of human tumor cells: Leukemia K562
In short: as §1

[27] = system: SF-295; assay: NCI screen, growth of human tumor cells: CNS Cancer SF-295
In short: as §1

[28] = system: SK-MEL-5; assay: NCI screen, growth of human tumor cells: Melanoma SK-MEL-5; conditions: SK-MEL-5, 10^−4 molar
In short: as §1

[29] = system: MDA-MB-435; assay: NCI screen, growth of human tumor cells: Breast Cancer MDA-MB-435
In short: as §1

[30] = system: OVCAR-5; assay: NCI screen, growth of human tumor cells: Ovarian Cancer OVCAR-5; conditions: OVCAR-5, 10^−4 molar
In short: as §1

[31] = system: U-251; assay: NCI screen, growth of human tumor cells: CNS Cancer U-251
In short: as §1

[32] = system: SF-268; assay: NCI screen, growth of human tumor cells: CNS Cancer SF-268
In short: as §1

[33] = system: UACC-257; assay: NCI screen, growth of human tumor cells: Melanoma UACC-257; conditions: UACC-257, 10^−4 molar
In short: as §1

[34] = system: NCI-H460; assay: NCI screen, growth of human tumor cells: Non-Small Cell Lung NCI-H460
In short: as §1

[35] = system: UACC-62; assay: NCI screen, growth of human tumor cells: Melanoma UACC-62
In short: as §1

[36] = system: SNB-75; assay: NCI screen, growth of human tumor cells: CNS Cancer SNB-75
In short: as §1

[37] = system: NCI-H322M; assay: NCI screen, growth of human tumor cells: Non-Small Cell Lung NCI-H322M; conditions: NCI-H322M, 10^−4 molar
In short: as §1

Cc1ccc2ccccc2c1CC1S(=O)(=O)OCCOS1(=O)=O [NSC 679043, ethylene 2-methyl-1-naphyl-1,1-ethanedisulfonate]
% Growth [1]: −95% | % Growth ([2]; NCI-H226, 10^−4 molar): −63% | % Growth ([2]; NCI-H226, 10^−5 molar): 49% | % Growth ([3]; HCT-116, 10^−4 molar): −99% | % Growth ([3]; HCT-116, 10^−5 molar): 15% | % Growth [4]: −98% | % Growth ([5]; HT-29, 10^−4 molar): −95% | % Growth ([5]; HT-29, 10^−5 molar): 57% | percent of growth of human tumor cells ([6]; OVCAR-8 (Ovarian Cancer), 10^−4 molar): −53% | % Growth ([7]; RPMI-8226, 10^−4 molar): −54% | % Growth ([7]; RPMI-8226, 10^−5 molar): 56% | % Growth ([8]; 10^−4 molar): −84% | % Growth ([8]; 10^−5 molar): 45% | % Growth [9]: −85% | percent of growth of human tumor cells ([10]; SK-MEL-2 (Melanoma), 10^−4 molar): −59% | percent of growth of human tumor cells [11]: −12% | % Growth [12]: −78% | % Growth [13]: −100% | % Growth ([14]; MCF7, 10^−4 molar): −78% | % Growth ([14]; MCF7, 10^−5 molar): 45% | % Growth [15]: −100% | % Growth ([16]; COLO205, 10^−4 molar): −98% | % Growth ([16]; COLO205, 10^−5 molar): −27% | % Growth ([17]; 10^−4 molar): −90% | % Growth ([18]; BT-549, 10^−4 molar): −82% | % Growth ([18]; BT-549, 10^−5 molar): 57% | % Growth [19]: −100% | % Growth [20]: −93% | % Growth [21]: −69% | % Growth ([22]; 10^−4 molar): −63% | % Growth ([22]; 10^−5 molar): 42% | % Growth ([23]; PC-3, 10^−4 molar): −91% | % Growth ([23]; PC-3, 10^−5 molar): 57% | % Growth [24]: −97% | percent of growth of human tumor cells [25]: −12% | % Growth ([26]; K562, 10^−4 molar): −42% | % Growth ([26]; K562, 10^−5 molar): 48% | % Growth ([27]; SF-295, 10^−4 molar): −88% | % Growth [28]: −91% | % Growth ([29]; MDA-MB-435, 10^−4 molar): −90% | % Growth ([29]; MDA-MB-435, 10^−5 molar): 47% | % Growth [30]: −98% | % Growth ([31]; U251, 10^−4 molar): −96%

CC1=C(CC2S(=O)(=O)OCCOS2(=O)=O)C(=O)c2ccccc2C1=O [NSC 693874, ethylene (3-methyl-1,4-naphtho-2-quinoyl)-1,1-ethanedisulfonate]
% Growth [1]: −92% | % Growth ([2]; NCI-H226, 10^−4 molar): −82% | % Growth ([2]; NCI-H226, 10^−5 molar): 48% | % Growth ([32]; SF-268, 10^−4 molar): 10% | % Growth ([32]; SF-268, 10^−5 molar): 49% | % Growth [4]: −93% | % Growth ([6]; OVCAR-8, 10^−4 molar): −71% | % Growth ([7]; RPMI-8226, 10^−4 molar): −55% | % Growth ([8]; 10^−4 molar): −95% | % Growth ([8]; 10^−5 molar): 35% | % Growth [33]: −100% | % Growth [9]: −100% | % Growth ([10]; SK-MEL-2, 10^−4 molar): −85% | percent of growth of human tumor cells [11]: −22% | % Growth ([34]; NCI-H460, 10^−4 molar): −73% | % Growth ([34]; NCI-H460, 10^−5 molar): 59% | % Growth [12]: −83% | % Growth [13]: −94% | % Growth ([14]; MCF7, 10^−4 molar): −83% | % Growth ([14]; MCF7, 10^−5 molar): 56% | % Growth [15]: −100% | % Growth ([17]; 10^−4 molar): −100% | % Growth ([17]; 10^−5 molar): 50% | % Growth ([18]; BT-549, 10^−4 molar): −100% | % Growth [20]: −100% | % Growth ([35]; UACC-62, 10^−4 molar): −92% | % Growth ([35]; UACC-62, 10^−5 molar): 48% | % Growth ([22]; 10^−4 molar): −45% | % Growth ([22]; 10^−5 molar): −15% | % Growth ([22]; 10^−6 molar): 9% | % Growth ([22]; 10^−7 molar): 48% | % Growth ([22]; 10^−8 molar): 79% | % Growth ([23]; PC-3, 10^−4 molar): −80% | % Growth [24]: −89% | percent of growth of human tumor cells [25]: −41% | % Growth ([27]; SF-295, 10^−4 molar): −100% | % Growth ([27]; SF-295, 10^−5 molar): 32% | % Growth [28]: −100% | % Growth ([36]; SNB-75, 10^−4 molar): −96% | % Growth ([36]; SNB-75, 10^−5 molar): −21% | % Growth ([36]; SNB-75, 10^−6 molar): 6% | % Growth ([36]; SNB-75, 10^−7 molar): 27% | % Growth ([36]; SNB-75, 10^−8 molar): 6% | % Growth ([29]; MDA-MB-435, 10^−4 molar): −92% | % Growth ([29]; MDA-MB-435, 10^−5 molar): 54% | % Growth [30]: −98% | % Growth ([31]; U251, 10^−4 molar): −25% | % Growth ([31]; U251, 10^−5 molar): 57% | % Growth [37]: −100%

From patent US8124793B2, “Derivatives of ethylene methanedisulfonate as cancer chemotherapeutic agents” (priority 2007, dated 2012)
